Results on 105 compounds are retold here after PubChem BioAssay AID1552 (Sanford-Burnham Center for Chemical Genomics, 2009).

The assay addresses Ubiquitin-conjugating enzyme E2 N (Homo sapiens) (UniProt P61088). Kind of assay: UBE2N binders by NMR, biophysical, purified protein (AID 1552). As to conditions: NMR binding to purified UBE2N.

Calls of active or inactive are those of the source. How the calls were made is not given here.

Ubiquitin-conjugating enzyme E2 N (Homo sapiens), sequence (P61088 whole entry, looked up): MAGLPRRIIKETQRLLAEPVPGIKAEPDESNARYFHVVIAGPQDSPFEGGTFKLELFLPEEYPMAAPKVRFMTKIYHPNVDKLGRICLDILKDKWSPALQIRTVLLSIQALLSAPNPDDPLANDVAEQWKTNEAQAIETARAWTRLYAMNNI

With `Cc1ccc2c(c1)CCCN2C(=O)c1ccncc1`, the Kd was > 4 mM (inactive).
With `CCCCCC(=O)Cc1cc(O)cc(O)c1C(=O)Oc1cc(CC(=O)CCCCC)c(C(=O)O)c(OC)c1`, the Kd was > 4 mM (inactive).
With `O=C(NCc1ccccc1Br)c1ccco1`, the Kd was > 4 mM (inactive).
The result for `Cc1cc(C)c2nncn2n1` reads > 4 mM (inactive).
The result for `O=C(O)c1ccc(-n2ccnc2)cc1` reads > 4 mM (inactive); that for `O=S1(=O)C=CC(Nc2ccccc2)C1` (stereo not given), > 4 mM (inactive).
The result for `N#C/C(=C\c1ccc[nH]1)S(=O)(=O)c1ccccc1` reads > 4 mM (inactive).
As to `O=c1c(-c2ccco2)[n+]([O-])c2ccccc2n1O`, the Kd is > 4 mM (inactive).
The result for `Cc1cccc(C)c1NC(=O)CN1CCOCC1` reads > 4 mM (inactive).
Take `CCNC(=S)NS(=O)(=O)c1ccccc1`: the Kd is > 4 mM (inactive).
`O=C(NCc1ccccn1)c1ccc(Cl)cc1Cl`: the Kd was > 4 mM (inactive).
The figure for `NC(=O)Cn1cnc2ccccc21` is > 4 mM (inactive); for `COc1ccc(N2CC(=O)NC2=O)cc1` it is > 4 mM (inactive); for `Cn1c(SCC(N)=O)nnc1-c1c[nH]c2ccccc12` it is > 4 mM (inactive).
On to `CC(=O)Oc1ccc(N2C(=O)C3C4C=CC(O4)C3C2=O)cc1` (stereo not given), for which the Kd is > 4 mM (inactive).
The result for `COc1ccc(-c2cc(=O)c3c(O)cc(O[C@H]4O[C@H](CO[C@@H]5O[C@@H](C)[C@H](O)[C@@H](O)[C@H]5O)[C@@H](O)[C@H](O)[C@H]4O)cc3o2)cc1` reads > 4 mM (inactive); that for `C[C@@H]1C(=O)O[C@H]2[C@H]1CC[C@@]1(C)C=CC(=O)[C@@]3(C)O[C@@]213`, > 4 mM (inactive).
With `Cc1ccc(-c2c(C)n([O-])c3c([n+]2=O)CCCC3)o1`, the Kd is > 4 mM (inactive).
The figure for `OC1(c2ccc(Cl)cc2)CCNCC1` is > 4 mM (inactive); for `Cc1cc(NC(=O)CCCn2cnc([N+](=O)[O-])n2)no1` it is > 4 mM (inactive); for `Nc1n[nH]c(=S)n1-c1ccccc1` it is > 4 mM (inactive).
As for `O=C(O)C1CNc2ccccc2O1` (stereo not given), the Kd was > 4 mM (inactive).
The figure for `O=C(c1ccco1)N1CCN(Cc2cccc(F)c2)CC1` is > 4 mM (inactive); for `COc1cc2c(cc1OC)[C@@H]1C(=O)c3ccc4oc(C(C)C)cc4c3O[C@@H]1CO2` it is > 4 mM (inactive).
The figure for `Cc1nc(NC(=O)c2cccnc2)ccc1Br` is > 4 mM (inactive).
For `CC(=O)N1CCN(C2CCSC2)CC1` (stereo not given), the Kd was > 4 mM (inactive).
The result for `Cc1cc(C)n2nc(Cc3ccccc3)nc2n1` reads > 4 mM (inactive).
The result for `COCc1c(CN)cnc(C)c1N` reads > 4 mM (inactive).
The result for `COc1cc(-c2coc3cc(OCc4ccccc4)c(OC)c(O)c3c2=O)cc(O)c1OC` reads > 4 mM (inactive); that for `N[C@@H](Cc1ccc(O)c(O)c1)C(=O)O`, > 4 mM (inactive); that for `O=C1NC(=O)C(C(C[N+](=O)[O-])c2ccc(O)cc2)C(=O)N1` (stereo not given), > 4 mM (inactive).
With `COc1c(C(=O)N2CCCC2)ccc2ccccc12`, the Kd was > 4 mM (inactive).
The result for `CCOC(=O)C1CN(C)CCN1C` (stereo not given) reads > 4 mM (inactive).
The result for `Cc1nnc2n(c1=O)N=C(c1ccccc1)CS2` reads > 4 mM (inactive); that for `Nc1ccccc1C(=O)N1CCOCC1`, > 4 mM (inactive); that for `C/C=C(\C)C(=O)OC1[C@@H]2C=C3C(CC[C@]4(C)C3CC(=O)O[C@H]4c3ccoc3)C(C)(C2=O)[C@@H](C(O)C(=O)OC)C1(C)C` (stereo not given in full), > 4 mM (inactive).
The result for `Cc1cccc(C)c1NC(=O)/C=C/C(=O)O` reads > 4 mM (inactive).
Regarding `Nc1ncnc2c1ncn2CCN1CCOCC1`, the Kd was > 4 mM (inactive).
The result for `Nc1ccc(Cc2ccncc2)cc1` reads > 4 mM (inactive); that for `CNc1nc(SC)nc(N2CCOCC2)n1`, > 4 mM (inactive).
On to `O=c1[nH]cnc2nc[nH]c12`, for which the Kd is > 4 mM (inactive).
The result for `CS(=O)(=O)N1CCC(C(=O)NC2CCCC2)CC1` reads > 4 mM (inactive); that for `OC1CCNC2CCCCC12` (stereo not given), > 4 mM (inactive); that for `Cc1ccc(C(=O)Nn2cnnc2)c(Cl)c1`, > 4 mM (inactive).
The figure for `NC(=O)COc1cccc2cccnc12` is > 4 mM (inactive); for `Cc1nnsc1C(=O)Nc1ccccn1` it is > 4 mM (inactive).
The result for `CS/C(N)=C\C(C)=O` reads > 4 mM (inactive).
Take `COC(=O)C1CSCC1=O` (stereo not given): the Kd was > 4 mM (inactive).
The figure for `Clc1ccc(-c2nnc3ccccn23)cc1` is > 4 mM (inactive).
Take `OC1CCN(C(=S)NC2CC2)CC1`: the Kd is > 4 mM (inactive).
For `O=C1CCC(=O)N1c1ccc(F)cc1`, the Kd was > 4 mM (inactive).
The result for `COc1ccc2nc(NC(=O)c3cnccn3)sc2c1` reads > 4 mM (inactive).
The result for `Cc1cc(C(=O)NN2CCOCC2)c(C)o1` reads > 4 mM (inactive); that for `COc1ccc2c(=O)c(OC)c(-c3ccccc3)oc2c1`, > 4 mM (inactive).
For `O=C(c1ccncc1)c1ccc(Br)cc1`, the Kd was > 4 mM (inactive).
On to `O=C(O)c1ccc(N2CCCCC2)cc1`, for which the Kd is > 4 mM (inactive).
`O=C(O)CCC1NCC2CC1CN1CCCCC21` (stereo not given): the Kd was > 4 mM (inactive).
The result for `O=C1CC(=O)N(c2cccc(Cl)c2)N1` reads > 4 mM (inactive); that for `O=C(O)CSCc1c(F)cccc1Cl`, > 4 mM (inactive).
The result for `Cn1c(=O)[nH]c(=O)c2nsnc21` reads > 4 mM (inactive).
As for `COc1c2c(c(CC=C(C)C)c3oc(=O)c(-c4ccc(O)cc4)c(O)c13)OC(C)(C)C=C2`, the Kd is > 4 mM (inactive).
The figure for `CN(C)c1ccc(NC(=O)CC(C(=O)O)N(C)C)cc1` (stereo not given) is > 4 mM (inactive).
The result for `O=C(c1ccco1)N1CCNCC1` reads > 4 mM (inactive); that for `C/C(=N\NC(N)=S)C(=O)O`, > 4 mM (inactive); that for `c1ccc(-c2noc(-c3ccc4c(c3)OCO4)n2)nc1`, > 4 mM (inactive).
The result for `CS(C)=C1C(=O)NC(=O)N(Cc2ccc(F)cc2)C1=O` reads > 4 mM (inactive); that for `Nc1nnc(-c2ccncc2)s1`, > 4 mM (inactive).
`COC(=O)c1cc(-c2c[nH]c3ccccc23)n[nH]1`: the Kd was > 4 mM (inactive).
The figure for `O=C1NC(=O)C(=Cc2cccs2)C(=O)N1` is > 4 mM (inactive).
In the case of `Cc1nn(-c2ccccc2)nc1C(=O)O`, the Kd was > 4 mM (inactive).
Regarding `O=C(O)c1ccccc1C(=O)NCC1CCCO1` (stereo not given), the Kd is > 4 mM (inactive).
The result for `COC(=O)C[C@@H]1C2(C)C(=O)[C@@H](CC3C2CC[C@]2(C)C3CC(=O)O[C@H]2c2ccoc2)[C@H](OC(C)=O)C1(C)C` (stereo not given in full) reads > 4 mM (inactive); that for `COc1ccc([C@H]2Oc3c(I)c(OC)cc(OC)c3C[C@@H]2O)cc1OC`, > 4 mM (inactive).
Regarding `CCCc1cc(=O)[nH]c2nnc(SCC(C)=O)n12`, the Kd was > 4 mM (inactive).
Take `Nc1nc(-c2nc3ccccc3[nH]2)cs1`: the Kd was > 4 mM (inactive).
The figure for `Nc1ccc(-c2cnco2)cc1` is > 4 mM (inactive); for `COc1c2c(cc3c1OCO3)CCN(C)C2` it is > 4 mM (inactive); for `CNc1nc(OC)nc(N2CCOCC2)n1` it is > 4 mM (inactive).
The result for `O=C(c1ccccc1)c1cncc(Br)c1` reads > 4 mM (inactive).
Consider `CSc1ccc2nnc(-c3cccnc3)n2n1`, for which the Kd is > 4 mM (inactive).
Take `CCNC(=O)CC[C@H](N)C(=O)O`: the Kd was > 4 mM (inactive).
The figure for `O=c1[nH]cc(Nc2ccccc2)c(=O)[nH]1` is > 4 mM (inactive); for `OCCOc1ccc(C2=NCCO2)cc1` it is > 4 mM (inactive); for `Nc1nnc(SCc2ccc(F)cc2Cl)s1` it is > 4 mM (inactive).
The result for `CC(=O)NCC1OCCc2ccccc21` (stereo not given) reads > 4 mM (inactive).
The figure for `CC(=O)Nc1nnc(-c2ccco2)o1` is > 4 mM (inactive); for `Nc1cc(=O)[nH]c(=S)n1CCc1ccccc1` it is > 4 mM (inactive); for `Cc1cc(C(=O)O)n[nH]1` it is > 4 mM (inactive).
Consider `O=C(NCO)c1ccc([N+](=O)[O-])cc1`, for which the Kd is > 4 mM (inactive).
For `O=C(O)C(CO)c1ccccc1` (stereo not given), the Kd is > 4 mM (inactive).
As to `CCC(=O)Nc1ccc(-c2nn3c(C)nnc3s2)cc1`, the Kd is > 4 mM (inactive).
The figure for `O=C1C2=C(SCCS2)C(=O)N1CCCO` is > 4 mM (inactive); for `O=C(Nc1cccc2cccnc12)c1cccnc1` it is > 4 mM (inactive).
`O=C1C=CC(=O)c2c(O)cccc21`: the Kd is > 4 mM (inactive).
The figure for `O=c1[nH]c(N2CCOCC2)nc2ccccc12` is > 4 mM (inactive).
Take `Cc1ccc(-c2nc(N)n(C(=O)c3cccnc3)n2)cc1`: the Kd is > 4 mM (inactive).
`CCOC(=O)c1ccc2c(c1)nnn2C`: the Kd was > 4 mM (inactive).
Turning to `O=C(Nc1ccc(O)cc1)N1CCOCC1`, the Kd is > 4 mM (inactive).
Regarding `COC(=O)C1=C(C)N(c2cccc(C(C)=O)c2)C(=O)C1`, the Kd is > 4 mM (inactive).
With `CC(=O)CC1(O)C(=O)Nc2ccc(Br)cc21` (stereo not given), the Kd was > 4 mM (inactive).
With `Cc1occc1C(=O)Nc1ccc(C(N)=O)cc1`, the Kd was > 4 mM (inactive).
The figure for `C=C(C)C1(O)OC(=O)C=C1OC` (stereo not given) is > 4 mM (inactive); for `Nc1csc(C(=O)O)c1` it is > 4 mM (inactive).
The result for `COC(=O)[C@H]1[C@H]2C[C@H]3c4[nH]c5ccccc5c4CCN3C[C@H]2CC[C@@H]1O` reads > 4 mM (inactive); that for `O=C(O)C(O)C(O)C(O)C(O)C(=O)O` (stereo not given), > 4 mM (inactive).

As a reminder, the Kd is the equilibrium constant for the complex coming apart.
